Data: PMC10659432 (bioRxiv, 2023)

How the values were obtained:
5-HT1eR [1] = molecular target: T1, 5-HT1eR (Homo sapiens, UniProt P28566); test: BRET Gi1 activation assay in transfected HEK293T cells, agonism; format: cell-based
Target sequence in this assay (P63096 2-354): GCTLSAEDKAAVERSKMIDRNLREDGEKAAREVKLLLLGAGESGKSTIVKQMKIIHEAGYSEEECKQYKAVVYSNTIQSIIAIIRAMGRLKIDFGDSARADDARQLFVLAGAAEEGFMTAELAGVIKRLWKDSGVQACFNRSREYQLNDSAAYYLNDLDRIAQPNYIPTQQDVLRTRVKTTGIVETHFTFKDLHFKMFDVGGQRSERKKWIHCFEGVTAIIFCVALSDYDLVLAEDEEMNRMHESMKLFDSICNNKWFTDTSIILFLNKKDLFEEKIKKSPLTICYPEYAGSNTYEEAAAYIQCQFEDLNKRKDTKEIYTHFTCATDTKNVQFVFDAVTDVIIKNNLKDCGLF
Target sequence in this assay (P62873 2-340, further chain): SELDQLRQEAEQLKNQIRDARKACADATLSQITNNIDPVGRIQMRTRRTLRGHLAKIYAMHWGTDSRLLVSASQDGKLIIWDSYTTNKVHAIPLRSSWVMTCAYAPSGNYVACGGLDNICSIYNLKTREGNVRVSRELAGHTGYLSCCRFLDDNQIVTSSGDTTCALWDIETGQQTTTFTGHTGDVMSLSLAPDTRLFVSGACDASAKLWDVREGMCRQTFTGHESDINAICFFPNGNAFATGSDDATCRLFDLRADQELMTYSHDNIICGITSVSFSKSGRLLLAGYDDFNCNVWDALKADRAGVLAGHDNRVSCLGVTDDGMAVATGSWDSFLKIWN
Target sequence in this assay (P59768 2-68, further chain): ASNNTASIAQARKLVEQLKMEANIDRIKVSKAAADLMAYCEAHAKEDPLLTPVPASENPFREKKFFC
Target sequence in this assay (P28566 whole entry): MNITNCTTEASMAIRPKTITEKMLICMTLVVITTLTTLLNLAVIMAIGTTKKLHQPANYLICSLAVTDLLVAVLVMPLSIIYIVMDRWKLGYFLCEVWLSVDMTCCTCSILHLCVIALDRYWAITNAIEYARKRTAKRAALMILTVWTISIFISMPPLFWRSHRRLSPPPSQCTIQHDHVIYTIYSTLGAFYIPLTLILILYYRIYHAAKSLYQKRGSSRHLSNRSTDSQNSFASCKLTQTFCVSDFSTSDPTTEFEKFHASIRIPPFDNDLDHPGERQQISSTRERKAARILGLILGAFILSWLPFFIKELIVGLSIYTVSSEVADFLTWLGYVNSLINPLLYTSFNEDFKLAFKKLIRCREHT

5-HT1FR [2] = molecular target: T2, 5-HT1FR (Homo sapiens, UniProt P30939); test: as above; format: cell-based
5-HT1eR [3] = molecular target: T1, 5-HT1eR; test: cryoEM structure at […] Å; format: cell-based
Target sequence in this assay (P28566 whole entry): as above

5-HT1FR [4] = molecular target: T2, 5-HT1FR; test: G protein BRET assay in transfected HEK293T cells, full agonism; format: cell-based
5-HT1FR [5] = molecular target: T2, 5-HT1FR; test: G protein BRET assay in transfected HEK293T cells, agonism; format: cell-based
5-HT1eR [6] = molecular target: T1, 5-HT1eR; test: cryoEM structure at […] Å
Target sequence in this assay (P28566 whole entry): as above

T2 sequence (P62873 2-340): as the sequence (P62873 2-340, further chain) above
T2 sequence (P30939 whole entry): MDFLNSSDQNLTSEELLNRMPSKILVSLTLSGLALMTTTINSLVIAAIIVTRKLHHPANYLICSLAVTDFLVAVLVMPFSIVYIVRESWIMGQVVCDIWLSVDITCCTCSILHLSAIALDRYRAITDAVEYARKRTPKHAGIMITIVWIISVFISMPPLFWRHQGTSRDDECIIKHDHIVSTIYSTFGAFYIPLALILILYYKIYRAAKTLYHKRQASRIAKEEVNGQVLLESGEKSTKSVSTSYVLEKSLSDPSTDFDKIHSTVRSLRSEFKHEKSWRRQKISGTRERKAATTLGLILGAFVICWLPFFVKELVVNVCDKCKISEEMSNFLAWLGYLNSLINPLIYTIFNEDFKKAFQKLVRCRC
T2 sequence (P63096 2-354, further chain): as the sequence (P63096 2-354) above
T2 sequence (P59768 2-68, further chain): as the sequence (P59768 2-68, further chain) above

SMILES | EC50 (5-HT1eR [1]) [nM] | EC50 (5-HT1FR [2]) [nM] | other results
CC[C@@H](CO)NC(=O)[C@@H]1C=C2c3cccc4[nH]cc(c34)C[C@H]2N(C)C1 [methylergonovine] | 17 | 5.2 | –
CN1CCC(=C2c3ccccc3Sc3ccccc32)CC1 [pimethixene] | 353 | 456 | –
Cc1cc(C(C)(C)C)c(O)c(C)c1CC1=NCCN1 [oxymetazoline] | – | 11.3 | –
CN1CCC2=C(C1)c1ccccc1Cc1ccccc12 [setiptiline] | – | – | EC50 (5-HT1eR [3]): 171 nM; EC50 (5-HT1FR [4]): 64.6 nM
CN1CCN2c3ncccc3Cc3ccccc3C2C1 (stereo not shown) [mirtazapine] | – | – | EC50 (5-HT1FR [5]): 236 nM
CN1CCN2c3ccccc3Cc3ccccc3C2C1 (stereo not shown) [mianserin] | – | 47.5 | EC50 (5-HT1eR [6]): 123 nM
